According to patent publication US12714754B2, “Delivery of cyclic compound by using carrier” (priority 2018, dated 2026):

Columns and labels:
[1] = tested on: subcutaneous tumor model mice (B×PC3); test: Antitumor effect on tumor-bearing mice; type: in vivo; settings: 1.5 mg/kg intraperitoneally
Description: A Val-encapsulating polymeric micelle solution prepared by using PEG-P(Asp-BH) (administration amount of Val: 1.5 mg/kg), a valinomycin solution (1.5 mg/kg), or a gemcitabine solution (80 mg/kg) was intravenously administered (only the valinomycin solution was intraperitoneally administered) to the tail vein of subcutaneous tumor model mice (B×PC3) on day 0, day 2, and day 4, and the sizes of the tumors and the body weights of the mice after lapses of various times were measured (n=4).

PANC-1 = test: Toxicity test against cultured cells (CCK-8); type: cell-based; settings: Homo sapiens, 48 hours, Val concentration, cell survival by CCK-8
Description: (§1) Human pancreatic adenocarcinoma cells (B×PC3 cells, Panc-cells, or MiaPaCa cells) were seeded into a 96-well plate (5,000 cells/well). After 24 hours, a Val-encapsulating polymeric micelle solution prepared by adding 0.3 equivalent of Val to PEG-P(Asp-BH) or Val alone was added at various Val concentrations. After 48 hours, the cells were washed with PBS, and a medium was added. After that, Cell Counting Kit-8 (CCK-8, 10 μL/well) was added to the medium, and 30 minutes later, UV absorbance at 450 nm was measured.

MiaPaCa = test: Toxicity test against cultured cells (CCK-8); type: cell-based; settings: Homo sapiens, MIA PaCa-2, 48 hours, Val concentration, cell survival by CCK-8
Description: as §1

BxPC3 = test: Toxicity test against cultured cells (CCK-8); type: cell-based; settings: Homo sapiens, BXPC-3, 48 hours, Val concentration, cell survival by CCK-8
Description: as §1

Q: With CC(C)[C@@H]1NC(=O)[C@H](C)OC(=O)[C@@H](C(C)C)NC(=O)[C@@H](C(C)C)OC(=O)[C@H](C(C)C)NC(=O)[C@H](C)OC(=O)[C@@H](C(C)C)NC(=O)[C@@H](C(C)C)OC(=O)[C@H](C(C)C)NC(=O)[C@H](C)OC(=O)[C@@H](C(C)C)NC(=O)[C@@H](C(C)C)OC1=O [Val, valinomycin] as the compound, how does the “death of all the mice, time after the initial administration” value [1] read?
A: ≤ 24 h

Q: And the IC50 (PANC-1)?
A: 8.3 nM

Q: And the IC50 (MiaPaCa)?
A: 23.2 nM

Q: And the IC50 (BxPC3)?
A: 12.5 nM
